Test results taken from patent publication US12077503B2, “Substituted cyclic amides and their use as herbicides” (FMC CORPORATION, priority 2015, dated 2024).

How the values were obtained:
Type in all cases: in vivo
corn (Zea mays) [1] = assay: Test G Post-Emergence Protocol; conditions: Zea mays, post-emergence, 312 h, read-out: Corn damage rating; for plant injury at 15.625 g/ha: 15.625 g ai/ha, evaluated after 13 days (100=total damage to plant; 0=no damage to plant); for plant injury at 62.5 g/ha: 62.5 g ai/ha; for plant injury at 62.5 g/ha / plant injury at 250 g/ha: evaluated after 13 days, 100=total damage to plant, 0=no damage to plant; for plant injury at 250 g/ha: 250 g ai/ha
Method in brief: (§1)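 Sow in soil; grow 8 d (24/16 °C, 14 h light, 65% humidity); spray 15.625/62.5/250 g/ha in acetone:water 50:50 + 0.5% Tween 20; grow on, water twice daily; score damage 0–100 at 13 d.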

[2] = system: ivy-leaved morning glory (Ipomoea hederacea); assay: Test G Post-Emergence Protocol; conditions: Ipomoea, post-emergence, 312 h, read-out: Morningglory, Ivy-leaved damage rating; for pest or weed control at 15.625 g/ha: 15.625 g ai/ha, evaluated after 13 days (100=total damage to plant; 0=no damage to plant); for pest or weed control at 62.5 g/ha: 62.5 g ai/ha; for pest or weed control at 62.5 g/ha / pest or weed control at 250 g/ha: evaluated after 13 days, 100=total damage to plant, 0=no damage to plant; for pest or weed control at 250 g/ha: 250 g ai/ha
Method in brief: as §1

[3] = system: redroot pigweed (Amaranthus retroflexus); assay: Test G Post-Emergence Protocol; conditions: Amaranthus retroflexus, post-emergence, 312 h, read-out: Pigweed, Redroot damage rating; for pest or weed control at 15.625 g/ha: 15.625 g ai/ha, evaluated after 13 days (100=total damage to plant; 0=no damage to plant); for pest or weed control at 62.5 g/ha: 62.5 g ai/ha; for pest or weed control at 62.5 g/ha / pest or weed control at 250 g/ha: evaluated after 13 days, 100=total damage to plant, 0=no damage to plant; for pest or weed control at 250 g/ha: 250 g ai/ha
Method in brief: as §1

[4] = system: giant foxtail (Setaria faberi); assay: Test G Post-Emergence Protocol; conditions: Setaria faberi, post-emergence, 312 h, read-out: Foxtail, Giant damage rating; for pest or weed control at 15.625 g/ha: 15.625 g ai/ha, evaluated after 13 days (100=total damage to plant; 0=no damage to plant); for pest or weed control at 62.5 g/ha: 62.5 g ai/ha; for pest or weed control at 62.5 g/ha / pest or weed control at 250 g/ha: evaluated after 13 days, 100=total damage to plant, 0=no damage to plant; for pest or weed control at 250 g/ha: 250 g ai/ha
Method in brief: as §1

[5] = system: velvetleaf (Abutilon theophrasti); assay: Test G Post-Emergence Protocol; conditions: Abutilon theophrasti, post-emergence, 312 h, read-out: Velvetleaf damage rating; for pest or weed control at 15.625 g/ha: 15.625 g ai/ha, evaluated after 13 days (100=total damage to plant; 0=no damage to plant); for pest or weed control at 62.5 g/ha: 62.5 g ai/ha; for pest or weed control at 62.5 g/ha / pest or weed control at 250 g/ha: evaluated after 13 days, 100=total damage to plant, 0=no damage to plant; for pest or weed control at 250 g/ha: 250 g ai/ha
Method in brief: as §1

[6] = system: barnyardgrass (Echinochloa crus-galli); assay: Test G Post-Emergence Protocol; conditions: Echinochloa crus-galli, post-emergence, 312 h, read-out: Barnyardgrass damage rating; for pest or weed control at 15.625 g/ha: 15.625 g ai/ha, evaluated after 13 days (100=total damage to plant; 0=no damage to plant); for pest or weed control at 62.5 g/ha: 62.5 g ai/ha; for pest or weed control at 62.5 g/ha / pest or weed control at 250 g/ha: evaluated after 13 days, 100=total damage to plant, 0=no damage to plant; for pest or weed control at 250 g/ha: 250 g ai/ha
Method in brief: as §1

corn (Zea mays) [7] = assay: Test G Pre-Emergence Protocol; conditions: Zea mays, pre-emergence, 312 h, evaluated after 13 days; for plant injury at 15.625 g/ha: 15.625 g ai/ha; for plant injury at 15.625 g/ha / plant injury at 250 g/ha: read-out: Corn damage rating (100=total damage to plant; 0=no damage to plant); for plant injury at 62.5 g/ha: 62.5 g ai/ha, 100=total damage to plant, 0=no damage to plant, read-out: Corn damage rating; for plant injury at 250 g/ha: 250 g ai/ha
Method in brief: (§2)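 Pre-emergence spray, 15.625/62.5/250 g/ha, vehicle acetone:water 50:50 + 0.5% Tween 20, applied 1 d after sowing. Glasshouse 24/16° C, 14 h light, 65% RH, watered twice daily. Visual damage rating at 13 d, 0–100 scale.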

[8] = system: ivy-leaved morning glory (Ipomoea hederacea); assay: Test G Pre-Emergence Protocol; conditions: Ipomoea, pre-emergence, 312 h, evaluated after 13 days; for pest or weed control at 15.625 g/ha: 15.625 g ai/ha; for pest or weed control at 15.625 g/ha / pest or weed control at 250 g/ha: read-out: Morningglory, Ivy-leaved damage rating (100=total damage to plant; 0=no damage to plant); for pest or weed control at 62.5 g/ha: 62.5 g ai/ha, 100=total damage to plant, 0=no damage to plant, read-out: Morningglory, Ivy-leaved damage rating; for pest or weed control at 250 g/ha: 250 g ai/ha
Method in brief: as §2

[9] = system: redroot pigweed (Amaranthus retroflexus); assay: Test G Pre-Emergence Protocol; conditions: Amaranthus retroflexus, pre-emergence, 312 h, evaluated after 13 days; for pest or weed control at 15.625 g/ha: 15.625 g ai/ha; for pest or weed control at 15.625 g/ha / pest or weed control at 250 g/ha: read-out: Pigweed, Redroot damage rating (100=total damage to plant; 0=no damage to plant); for pest or weed control at 62.5 g/ha: 62.5 g ai/ha, 100=total damage to plant, 0=no damage to plant, read-out: Pigweed, Redroot damage rating; for pest or weed control at 250 g/ha: 250 g ai/ha
Method in brief: as §2

[10] = system: giant foxtail (Setaria faberi); assay: Test G Pre-Emergence Protocol; conditions: Setaria faberi, pre-emergence, 312 h, evaluated after 13 days; for pest or weed control at 15.625 g/ha: 15.625 g ai/ha; for pest or weed control at 15.625 g/ha / pest or weed control at 250 g/ha: read-out: Foxtail, Giant damage rating (100=total damage to plant; 0=no damage to plant); for pest or weed control at 62.5 g/ha: 62.5 g ai/ha, 100=total damage to plant, 0=no damage to plant, read-out: Foxtail, Giant damage rating; for pest or weed control at 250 g/ha: 250 g ai/ha
Method in brief: as §2

[11] = system: velvetleaf (Abutilon theophrasti); assay: Test G Pre-Emergence Protocol; conditions: Abutilon theophrasti, pre-emergence, 312 h, evaluated after 13 days; for pest or weed control at 15.625 g/ha: 15.625 g ai/ha; for pest or weed control at 15.625 g/ha / pest or weed control at 250 g/ha: read-out: Velvetleaf damage rating (100=total damage to plant; 0=no damage to plant); for pest or weed control at 62.5 g/ha: 62.5 g ai/ha, 100=total damage to plant, 0=no damage to plant, read-out: Velvetleaf damage rating; for pest or weed control at 250 g/ha: 250 g ai/ha
Method in brief: as §2

[12] = system: barnyardgrass (Echinochloa crus-galli); assay: Test G Pre-Emergence Protocol; conditions: Echinochloa crus-galli, pre-emergence, 312 h, evaluated after 13 days; for pest or weed control at 15.625 g/ha: 15.625 g ai/ha; for pest or weed control at 15.625 g/ha / pest or weed control at 250 g/ha: read-out: Barnyardgrass damage rating (100=total damage to plant; 0=no damage to plant); for pest or weed control at 62.5 g/ha: 62.5 g ai/ha, 100=total damage to plant, 0=no damage to plant, read-out: Barnyardgrass damage rating; for pest or weed control at 250 g/ha: 250 g ai/ha
Method in brief: as §2

`CN1C[C@H](c2cccc(C(F)F)c2)[C@@H](C(=O)Nc2cnccc2C(F)(F)F)C1=O` (racemic) [Compound 1742] showed a plant injury at 15.625 g/ha (corn (Zea mays) [1]) of 0%, a plant injury at 62.5 g/ha (corn (Zea mays) [1]) of 0% and a plant injury at 250 g/ha (corn (Zea mays) [1]) of 70%. It also gave a pest or weed control at 15.625 g/ha [2] of 0%, a pest or weed control at 62.5 g/ha [2] of 0% and a pest or weed control at 250 g/ha [2] of 40%. For the same molecule, the pest or weed control at 15.625 g/ha [3] was 0%, the pest or weed control at 62.5 g/ha [3] was 20% and the pest or weed control at 250 g/ha [3] was 30%. For the same molecule, the pest or weed control at 15.625 g/ha [4] was 70%, the pest or weed control at 62.5 g/ha [4] was 80% and the pest or weed control at 250 g/ha [4] was 80%. The pest or weed control at 15.625 g/ha [5] was 0%, the pest or weed control at 62.5 g/ha [5] was 10% and the pest or weed control at 250 g/ha [5] was 20%. It also gave a pest or weed control at 15.625 g/ha [6] of 0%, a pest or weed control at 62.5 g/ha [6] of 70% and a pest or weed control at 250 g/ha [6] of 80%. The plant injury at 15.625 g/ha (corn (Zea mays) [7]) was 0%, the plant injury at 62.5 g/ha (corn (Zea mays) [7]) was 0% and the plant injury at 250 g/ha (corn (Zea mays) [7]) was 30%. For the same molecule, the pest or weed control at 15.625 g/ha [8] was 0%, the pest or weed control at 62.5 g/ha [8] was 0% and the pest or weed control at 250 g/ha [8] was 10%. It also gave a pest or weed control at 15.625 g/ha [9] of 0%, a pest or weed control at 62.5 g/ha [9] of 10% and a pest or weed control at 250 g/ha [9] of 20%. For the same molecule, the pest or weed control at 15.625 g/ha [10] was 50%, the pest or weed control at 62.5 g/ha [10] was 80% and the pest or weed control at 250 g/ha [10] was 90%. The pest or weed control at 15.625 g/ha [11] was 0%, the pest or weed control at 62.5 g/ha [11] was 0% and the pest or weed control at 250 g/ha [11] was 30%. For the same molecule, the pest or weed control at 15.625 g/ha [12] was 0%, the pest or weed control at 62.5 g/ha [12] was 0% and the pest or weed control at 250 g/ha [12] was 80%.
`CN1C[C@H](c2ccc(Cl)cc2)[C@@H](C(=O)Nc2ccc(F)nc2F)C1=O` [Compound 1811] gave a plant injury at 15.625 g/ha (corn (Zea mays) [1]) of 40%, a plant injury at 62.5 g/ha (corn (Zea mays) [1]) of 60% and a plant injury at 250 g/ha (corn (Zea mays) [1]) of 80%. For the same molecule, the pest or weed control at 15.625 g/ha [2] was 40%, the pest or weed control at 62.5 g/ha [2] was 20% and the pest or weed control at 250 g/ha [2] was 70%. The pest or weed control at 15.625 g/ha [3] was 20%, the pest or weed control at 62.5 g/ha [3] was 60% and the pest or weed control at 250 g/ha [3] was 80%. It also gave a pest or weed control at 15.625 g/ha [4] of 80%, a pest or weed control at 62.5 g/ha [4] of 80% and a pest or weed control at 250 g/ha [4] of 80%. The pest or weed control at 15.625 g/ha [5] was 10%, the pest or weed control at 62.5 g/ha [5] was 30% and the pest or weed control at 250 g/ha [5] was 50%. It also gave a pest or weed control at 15.625 g/ha [6] of 80%, a pest or weed control at 62.5 g/ha [6] of 80% and a pest or weed control at 250 g/ha [6] of 80%. For the same molecule, the plant injury at 15.625 g/ha (corn (Zea mays) [7]) was 0%, the plant injury at 62.5 g/ha (corn (Zea mays) [7]) was 70% and the plant injury at 250 g/ha (corn (Zea mays) [7]) was 80%. For the same molecule, the pest or weed control at 15.625 g/ha [8] was 0%, the pest or weed control at 62.5 g/ha [8] was 20% and the pest or weed control at 250 g/ha [8] was 80%. It also gave a pest or weed control at 15.625 g/ha [9] of 30%, a pest or weed control at 62.5 g/ha [9] of 70% and a pest or weed control at 250 g/ha [9] of 80%. For the same molecule, the pest or weed control at 15.625 g/ha [10] was 90%, the pest or weed control at 62.5 g/ha [10] was 90% and the pest or weed control at 250 g/ha [10] was 90%. It also gave a pest or weed control at 15.625 g/ha [11] of 10%, a pest or weed control at 62.5 g/ha [11] of 50% and a pest or weed control at 250 g/ha [11] of 70%. It also gave a pest or weed control at 15.625 g/ha [12] of 80%, a pest or weed control at 62.5 g/ha [12] of 90% and a pest or weed control at 250 g/ha [12] of 90%.
